Consider six substances from patent publication US20230263822A1, “MODULATION OF FACTOR 11 EXPRESSION” (Ionis Pharmaceuticals, Inc., priority 2008, published 2023).

Read-outs that look alike come from different tables or passages of the source. Strand notation (5' to 3'): a small letter for the sugar, then the base; units joined by * are phosphorothioate-linked, units joined directly phosphodiester-linked; [ ] holds rarer units or linkages, { } end groups; capitals alone tell only the bases. e = 2'-O-(2-methoxyethyl) (MOE); [5mC] = 5-methylcytosine; d = 2'-deoxy (DNA)

The test system of one series is fibrinogen. Kind of series: Fibrinogen assay (Example 45). The following applies: plasma, escalating dose regimen. The series is classed as in vivo, cynomolgus monkeys. As for the experimental part: (§1) Groups, each consisting of two male and three female monkeys, were injected subcutaneously with ISIS 416838, ISIS 416850, ISIS 416858, ISIS 416864, or ISIS 417002 in escalating doses. Antisense oligonucleotide was administered to the monkeys at 5 mg/kg three times per a week for week 1; 5 mg/kg twice per week for weeks 2 and 3; 10 mg/kg three times per week for week 4; 10 mg/kg twice per week for weeks 5 and 6; 25 mg/kg three times per week for week 7; and 25 mg/kg twice per week for weeks 8, 9, 10, 11, and 12. One control group, consisting of two male and three female monkeys, was injected subcutaneously with PBS according to the same dosing regimen. An additional experimental group, consisting of two male and three female monkeys, was injected subcutaneously with ISIS 416850 in a chronic, lower dose regimen. Antisense oligonucleotide was administered to the monkeys at 5 mg/kg three times per week for week 1; 5 mg/kg twice per week for week 2 and 3; 10 mg/kg three times per week for week 4; and 10 mg/kg twice per week for weeks 5 to 12. Body weights were measured weekly. Blood samples were collected 14 days and 5 days before the start of treatment and subsequently once per week for Factor 11 protein activity analysis in plasma, fibrinogen measurement, PT and aPTT measurements, bleeding times, and measurement of various hematologic factors. On day 85, the monkeys were euthanized by exsanguination while under deep anesthesia, and organs harvested for further analysis.
Nine parts of fresh monkey plasma was collected into one part of trisodium citrate. The samples were evaluated of fibrinogen content using an ACL 9000 coagulation instrument (Instrumentation Laboratory, Italy). The ISIS oligonucleotide, ISIS 416850, given with the chronic dose regimen is distinguished from the other oligonucleotides with an asterisk (*).

Series [1] can be described thus: Bleeding assay, Surgicutt Jr. device (Example 45). The arrangement: unit not given here. Conditions: escalating dose regimen. Type of series: in vivo, cynomolgus monkeys. The method, then:
as §1
On different days during the treatment period, bleeding assay was performed using a Surgicutt Jr. device (ITC, New Jersey). Monkeys were placed in monkey chair with their arm placed in a steady support. The arm was lightly shaved and a sphygmomanometer was placed on the upper arm. The cuff of the sphygmomanometer was inflated to 40 mm Hg and this pressure was maintained throughout the procedure. The area on the upper arm to be incised was cleansed with an antiseptic swab and the Surgicutt Jr device was used to make an incision over the lateral aspect, volar surface of the forearm, parallel to and 5 cm below the antecubital crease. At the exact moment the incision was made, a stopwatch was started. Every 30 seconds, blood from the incision was blotted out using a blotting paper without directly touching the incision, so that formation of the platelet plug was not disturbed. Blood was blotted out every 30 seconds until blood no longer stained the paper. The stopwatch was then stopped and the bleeding time determined. The sphygmomanometer was removed from the animal's arm, the incision site was antiseptically swabbed and a wound closure strip applied. The ISIS oligonucleotide, ISIS 416850, given with the chronic dose regimen is distinguished from the other oligonucleotides with an asterisk (*).

For series [2] the following is noted: mouse, in vivo, sc, 50 mg/kg.
The nature of series [3]: Tolerability in CD1 mice: kidney function, BUN, creatinine (Example 33). Conditions: plasma, 50 mg/kg s.c. twice a week.
Experimental: (§2) A control group of five mice was injected subcutaneously with PBS for 2 weeks. All experimental groups (i.e. ASO treated mice at 2, 4, 6 weeks) were compared to the control group (i.e. PBS, 2 weeks).
To evaluate the effect of ISIS oligonucleotides on kidney function, plasma concentrations of blood urea nitrogen (BUN) and creatinine were measured using an automated clinical chemistry analyzer (Hitachi Olympus AU400e, Melville, N.Y.).
A short description of series [4]: Tolerability in CD1 mice: liver function, ALT, AST, bilirubin, albumin (Example 33). The following applies: plasma, 50 mg/kg s.c. twice a week.
Experimental: as §2
To evaluate the effect of ISIS oligonucleotides on hepatic function, plasma concentrations of transaminases were measured using an automated clinical chemistry analyzer (Hitachi Olympus AU400e, Melville, N.Y.). […] Plasma levels of bilirubin and albumin were also measured using the same clinical chemistry analyzer and expressed in mg/dL.
Series [5] can be described thus: Tolerability in CD1 mice: liver function (Example 43). Type of series: in vivo. Conditions: 50 mg/kg s.c. twice per week for 6 weeks, plasma. More on the design: Albumin: unit not given here.
Series [6] in a line: Tolerability in CD1 mice: hematology assays (Example 43). The series is classed as in vivo. Conditions: 50 mg/kg s.c. twice per week for 6 weeks, blood.

In the case of “ISIS 416864: MOE gapmer, nucleobases 1275 to 1318 of SEQ ID NO: 1 (Table 8) (antisense GGCAGCGGACGGCATTGGTG; MOE gapmer, wing and gap sizes not given here)”, the fibrinogen levels is given as 227 mg/dL in the series on fibrinogen (day 8); 210 mg/dL in the series on fibrinogen (day 15); 184 mg/dL in the series with fibrinogen (day 22); 205 mg/dL in the series with fibrinogen (day 29); 202 mg/dL with fibrinogen (day 36); 198 mg/dL with fibrinogen (day 43). Moreover, the fibrinogen levels with fibrinogen (day 50) turned out to be 233 mg/dL; with fibrinogen (day 57) it was 200 mg/dL; in the series with fibrinogen (day 64), 218 mg/dL; in the series on fibrinogen (day 71) it was 245 mg/dL; in the series on fibrinogen (day 78), 250 mg/dL; in the series with fibrinogen (day 85), 240 mg/dL. For the same substance, the fibrinogen levels in the series with fibrinogen (day −5) amounted to 243 mg/dL; with fibrinogen (day −14), 300 mg/dL. The bleeding time is reported as 153 in series [1] (day 15); 133 in series [1] (day 22); 205 in series [1] (day 36); 146 in series [1] (day 43); 216 in series [1] (day 57); 218 in series [1] (day 64). Besides, the bleeding time in series [1] (day 78) was found to be 170; in series [1] (day 85), 203; in series [1] (day −5), 111; in series [1] (day −14), 166. Moreover, the ALT in series [2] was 36 IU/L; in series [4] (2 weeks), 44 IU/L; in series [4] (4 weeks) it was 33 IU/L; in series [4] (6 weeks) it was 92 IU/L. The AST was 67 IU/L in series [2], 58 IU/L in series [4] (2 weeks), 46 IU/L in series [4] (4 weeks) and 101 IU/L in series [4] (6 weeks). Besides, the Bilirubin in series [2] is recorded as 0.19 mg/dL; in series [4] (2 weeks), 0.40 mg/dL; in series [4] (4 weeks), 0.26 mg/dL; in series [4] (6 weeks), 0.22 mg/dL. Besides, the Cholesterol in series [2] is recorded as 152 mg/dL. Further, the BUN in series [3] (2 weeks) is on record as 22 mg/dL; in series [3] (4 weeks), 31 mg/dL; in series [3] (6 weeks), 28 mg/dL. Besides, the Creatinine in series [3] (2 weeks) was 0.11 mg/dL; in series [3] (4 weeks) it was 0.22 mg/dL; in series [3] (6 weeks), 0.16 mg/dL. The values for the Albumin in series [4] (2 weeks), in series [4] (4 weeks) and in series [4] (6 weeks) were 3.5, 3.6 and 3.5, respectively.

As for “ISIS 449707: 3-8-3, 4-8-4, 2-10-2, 3-10-3 or 4-10-4 MOE microwalk gapmer (Table 46) (antisense e[5mC]*eA*e[5mC]*eA*dG*dT*dT*dT*d[5mC]*dT*dG*dG*e[5mC]*eA*eG*eG)”, in series [5], the ALT was found to be 41 IU/L, the AST came out at 62 IU/L, the Albumin is 2.3 and the Bilirubin amounted to 0.19 mg/dL. In series [6], the Platelets stood at 1386 nL⁻¹, the RBC worked out at 8.4 pL⁻¹, the WBC was determined as 6 nL⁻¹ and the hematocrit turned out to be 45%. In series [6], the hemoglobin is 12.4 g/dL, the lymphocytes is 85%, the monocytes is given as 3% and the neutrophils was found to be 11%.

Turning to “ISIS 449708: 3-8-3, 4-8-4, 2-10-2, 3-10-3 or 4-10-4 MOE microwalk gapmer (Table 46) (antisense eA*e[5mC]*eA*dG*dT*dT*dT*d[5mC]*dT*dG*dG*e[5mC]*eA*eG)”, in series [5], the ALT is recorded as 66 IU/L, the AST is given as 103 IU/L, the Albumin is on record as 2.8 and the Bilirubin turned out to be 0.17 mg/dL. In series [6], this substance returned a Platelets of 1395 nL⁻¹, an RBC of 9.2 pL⁻¹, a WBC of 7 nL⁻¹ and a hematocrit of 48%. In series [6], the hemoglobin is given as 13.2 g/dL, the lymphocytes is on record as 77%, the monocytes stood at 5% and the neutrophils came to 17%.

Regarding “ISIS 449709: 3-8-3, 4-8-4, 2-10-2, 3-10-3 or 4-10-4 MOE microwalk gapmer (Table 46) (antisense eG*e[5mC]*eA*e[5mC]*dA*dG*dT*dT*dT*d[5mC]*dT*dG*dG*d[5mC]*eA*eG*eG*e[5mC])”, in series [5], the ALT turned out to be 62 IU/L, the AST worked out at 83 IU/L, the Albumin amounted to 2.8 and the Bilirubin is given as 0.18 mg/dL. For the same substance, in series [6], the Platelets was determined as 1447 nL⁻¹, the RBC was 9.2 pL⁻¹, the WBC turned out to be 5 nL⁻¹ and the hematocrit was determined as 49%. In series [6], this substance returned a hemoglobin of 13.2 g/dL, a lymphocytes of 76%, a monocytes of 4% and a neutrophils of 19%.

For the substance “ISIS 449710: 3-8-3, 4-8-4, 2-10-2, 3-10-3 or 4-10-4 MOE microwalk gapmer (Table 46) (antisense e[5mC]*eA*e[5mC]*dA*dG*dT*dT*dT*d[5mC]*dT*dG*dG*d[5mC]*eA*eG*eG)”, in series [5], the ALT was found to be 43 IU/L, the AST is given as 95 IU/L, the Albumin came to 2.8 and the Bilirubin worked out at 0.18 mg/dL. In series [6], this substance came in with a Platelets of 1245 nL⁻¹, an RBC of 9.1 pL⁻¹, a WBC of 7 nL⁻¹ and a hematocrit of 48%. Besides, in series [6], the hemoglobin worked out at 13.5 g/dL, the lymphocytes was determined as 81%, the monocytes is recorded as 3% and the neutrophils worked out at 15%.

In series [5], “ISIS 449711: 3-8-3, 4-8-4, 2-10-2, 3-10-3 or 4-10-4 MOE microwalk gapmer (Table 46) (antisense eA*e[5mC]*dA*dG*dT*dT*dT*d[5mC]*dT*dG*dG*d[5mC]*eA*eG)” showed an ALT of 52 IU/L, an AST of 83 IU/L, an Albumin of 2.8 and a Bilirubin of 0.22 mg/dL. In series [6], the Platelets stood at 1225 nL⁻¹, the RBC stood at 9.0 pL⁻¹, the WBC stood at 6 nL⁻¹ and the hematocrit came to 48%. Further, in series [6], the hemoglobin is given as 13.3 g/dL, the lymphocytes is reported as 79%, the monocytes came to 6% and the neutrophils worked out at 15%.
